Where two headings read alike, the source gives them in different places.
Molecular target: T1, MRP2 (Homo sapiens, UniProt Q92887)
T1 construct: expressed in transfected cells; host or cells: MDCK II
Assay: Transport of baicalin across MDCK II-MRP2 cell monolayer (transwell)
Assay type: in vitro ADME
Protocol: The cells were inoculated at a density of 0.5 mL (1 × 10^5) in the upper layer of the transwell plate (AP side), and the culture was changed daily after the lower layer was added with 1.5 mL of complete medium without cells every other day. After 5–7 days of growth, the supernatant was aspirated and discarded, and the cell monolayer was rinsed twice with 37 °C Hank’s Balanced Salt Solution (HBSS, pH 7.4). The electrical resistance of the cell monolayer compartments was measured with a resistivity meter (TEER), and the integrity of the cell monolayer was monitored using TEER. The differentiation of MDCK II-WT, MDCK II-MRP2, MDCK II-MRP3, and MDCK II-BCRP cells was examined by determining sodium fluorescein permeability prior to transit experiments. This was done in order to determine the integrity of the cell monolayer. When the TEER value of the cell monolayer was greater than 150 Ω·cm^2 and the MDCK II-MRP2, MDCK II-MRP3, and MDCK II-BCRP sodium fluorescein permeability was less than 0.5 × 10^−6 cm/s or the MDCK II-WT sodium fluorescein permeability was less than 1 × 10^−6 cm/s, the cell monolayer was considered intact and suitable for transit experiments. TEER = (TEERcell monolayer − TEERblank) × Aarea(1) wherein TEERcell monolayer is the resistance of the cell monolayer read directly from the Millicell ERS-2 resistivity meter, and TEERblank is the resistance read by inserting a blank HBSS (no cells) only. Aarea is the surface area of the filter membrane, 1.12 cm^2.
In this experiment, a 100 μM baicalin solution (dissolved in HBSS) containing different concentrations of PEG400 (0.25%, 0.5%, and 1%) was employed as the test solution, while a solution without PEG400 was used as the blank test solution, which was added to AP or BL chambers, respectively. In the top to basolateral (AP-BL) transport experiment, the 0.5 mL sample added to the apical side (AP) was utilized as the supply room, and the HBSS preheated to 1.5 mL 37 °C was added to the basolateral (BL) as the receiving chamber. Conversely, in the basal low lateral to top (BL-AP) transport experiment, the 1.5 mL sample (dissolved in HBSS) was added to the BL side as the supply room, and the 0.5 mL preheated HBSS was added as a receiving room on the AP side. Once the aforementioned steps had been completed, the transwell was placed on a 37 °C thermostatic oscillator at 60 r/min, and 100 μL was withdrawn from the receiving cell or 10 μL from the supply chamber at 30, 60, 90, and 120 min, depending on the experiment, and replenished with an equal volume of blank 37 °C preheated HBSS. The samples were utilized to precipitate the proteins with 100 μL of methanol containing the internal standard for 10 min. After centrifugation at 16,000× g for 15 min at 4 °C, the supernatant was collected in a volume of 70 μL. The contents were determined by UPLC-MS/MS, and apparent permeability coefficients (PAPP) and efflux ratios (ER) were calculated.
The formulas for calculating Papp and ER of monolayer and monolayer are as follows:(2) Papp=dQ/dt/AC0 wherein dQ/dt (ng/mL·s) is the transit rate (ng/mL·s); A is the membrane area (1.12 cm^2); and C0 (ng/mL) is the initial concentration of the sample in the supply chamber. ER = PappBL-AP/PappAP-BL (3) wherein PappBL-AP is the apparent permeability coefficient when the BL is added to the sample, and PappAP-BL is the apparent permeability coefficient when the sample is added at the top side (AP).

[1] = pH 7.4, MDCK II-MRP2, 100 μM BG + 0.25% PEG400
[2] = pH 7.4, MDCK II-MRP2, 100 μM BG + 0.5% PEG400
[3] = pH 7.4, MDCK II-MRP2, 100 μM BG + 1% PEG400
[4] = pH 7.4, MDCK II-MRP2, 100 μM BG alone

T1 sequence (Q92887 whole entry): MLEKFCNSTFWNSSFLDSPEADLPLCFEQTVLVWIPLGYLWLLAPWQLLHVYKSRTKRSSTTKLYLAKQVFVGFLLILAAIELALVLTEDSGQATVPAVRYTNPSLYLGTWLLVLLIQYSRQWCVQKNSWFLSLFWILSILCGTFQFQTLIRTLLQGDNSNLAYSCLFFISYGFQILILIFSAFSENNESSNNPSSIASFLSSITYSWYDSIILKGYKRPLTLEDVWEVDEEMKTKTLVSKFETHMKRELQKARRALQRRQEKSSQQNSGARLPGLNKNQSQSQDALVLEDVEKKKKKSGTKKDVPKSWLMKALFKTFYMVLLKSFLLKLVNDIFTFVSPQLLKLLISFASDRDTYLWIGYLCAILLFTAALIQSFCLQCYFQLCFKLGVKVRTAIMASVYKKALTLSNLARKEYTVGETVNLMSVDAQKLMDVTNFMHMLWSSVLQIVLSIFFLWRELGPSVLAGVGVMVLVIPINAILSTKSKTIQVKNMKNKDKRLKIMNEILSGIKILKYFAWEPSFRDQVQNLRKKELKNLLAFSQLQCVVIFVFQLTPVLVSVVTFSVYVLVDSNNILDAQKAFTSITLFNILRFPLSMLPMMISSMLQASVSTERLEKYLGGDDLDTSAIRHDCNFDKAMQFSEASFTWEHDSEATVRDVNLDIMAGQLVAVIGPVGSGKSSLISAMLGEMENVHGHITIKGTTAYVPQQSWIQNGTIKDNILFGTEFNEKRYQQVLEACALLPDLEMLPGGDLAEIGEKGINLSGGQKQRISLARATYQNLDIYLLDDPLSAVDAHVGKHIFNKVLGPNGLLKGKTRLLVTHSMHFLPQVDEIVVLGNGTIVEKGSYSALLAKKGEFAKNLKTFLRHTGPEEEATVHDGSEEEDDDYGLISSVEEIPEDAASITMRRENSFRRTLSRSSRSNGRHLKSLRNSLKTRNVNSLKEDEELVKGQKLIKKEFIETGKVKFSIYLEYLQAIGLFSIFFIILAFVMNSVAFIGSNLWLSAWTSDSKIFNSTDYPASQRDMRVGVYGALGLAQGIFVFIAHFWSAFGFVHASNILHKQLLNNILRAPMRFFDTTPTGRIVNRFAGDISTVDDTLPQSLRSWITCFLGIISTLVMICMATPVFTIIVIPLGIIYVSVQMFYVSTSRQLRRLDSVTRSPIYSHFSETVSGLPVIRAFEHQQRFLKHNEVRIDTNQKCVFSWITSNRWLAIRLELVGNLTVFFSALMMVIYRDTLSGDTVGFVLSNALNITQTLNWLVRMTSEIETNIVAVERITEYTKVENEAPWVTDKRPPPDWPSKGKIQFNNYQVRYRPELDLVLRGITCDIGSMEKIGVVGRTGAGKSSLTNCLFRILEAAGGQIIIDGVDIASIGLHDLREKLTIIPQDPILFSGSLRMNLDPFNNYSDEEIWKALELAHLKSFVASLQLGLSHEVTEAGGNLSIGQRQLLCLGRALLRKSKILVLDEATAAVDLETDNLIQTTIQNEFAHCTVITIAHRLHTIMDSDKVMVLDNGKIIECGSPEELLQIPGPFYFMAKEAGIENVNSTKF

Question: `O=C(O)[C@H]1O[C@@H](Oc2cc3oc(-c4ccccc4)cc(=O)c3c(O)c2O)[C@H](O)[C@@H](O)[C@@H]1O` [BG, Baicalein-7-O-β-D-glucuronide] was tested. Which Papp A→B at 120 min, 100 μM [1] did it give?
Answer: Its Papp A→B at 120 min, 100 μM is 1.27 ± 0.02 ×10⁻⁶ cm/s.

Question: And the Papp B→A at 120 min, 100 μM [1]?
Answer: The Papp B→A at 120 min, 100 μM was 2.83 ± 0.26 ×10⁻⁶ cm/s.

Question: And the efflux ratio at 120 min, 100 μM (pH 7.4, MDCK II-MRP2, 100 μM BG + 0.25% PEG400, read-out: ER)?
Answer: The efflux ratio at 120 min, 100 μM was 2.22 ± 0.17.

Question: And the Papp A→B at 120 min, 100 μM [2]?
Answer: The Papp A→B at 120 min, 100 μM was 2.51 ± 0.07 ×10⁻⁶ cm/s.

Question: What about the Papp B→A at 120 min, 100 μM [2] of the same compound?
Answer: The Papp B→A at 120 min, 100 μM was 2.73 ± 0.31 ×10⁻⁶ cm/s.

Question: What about the efflux ratio at 120 min, 100 μM (pH 7.4, MDCK II-MRP2, 100 μM BG + 0.5% PEG400, read-out: ER) of the same compound?
Answer: Its efflux ratio at 120 min, 100 μM is 1.08 ± 0.09.

Question: And the Papp A→B at 120 min, 100 μM [3]?
Answer: The Papp A→B at 120 min, 100 μM was 3.17 ± 0.06 ×10⁻⁶ cm/s.

Question: What about the Papp B→A at 120 min, 100 μM [3] of the same compound?
Answer: Its Papp B→A at 120 min, 100 μM is 2.53 ± 0.17 ×10⁻⁶ cm/s.

Question: What about the efflux ratio at 120 min, 100 μM (pH 7.4, MDCK II-MRP2, 100 μM BG + 1% PEG400, read-out: ER) of the same compound?
Answer: The efflux ratio at 120 min, 100 μM was 0.8 ± 0.04.

Question: And the Papp A→B at 120 min, 100 μM [4]?
Answer: Its Papp A→B at 120 min, 100 μM is 1.12 ± 0.11 ×10⁻⁶ cm/s.

Question: And the Papp B→A at 120 min, 100 μM [4]?
Answer: Its Papp B→A at 120 min, 100 μM is 3.28 ± 0.27 ×10⁻⁶ cm/s.

Question: And the efflux ratio at 120 min, 100 μM (pH 7.4, MDCK II-MRP2, 100 μM BG alone, read-out: ER)?
Answer: Its efflux ratio at 120 min, 100 μM is 2.45 ± 0.04.

Reference: publication PMC11206988, “Study on the Effect of Pharmaceutical Excipient PEG400 on the Pharmacokinetics of Baicalin in Cells Based on MRP2, MRP3, and BCRP Efflux Transporters” (Pharmaceutics, 2024)
